# From patent publication US6683028B1, “Cyclic guanidine derivatives and their use as pesticides” (Bayer Aktiengesellschaft, priority 1999, dated 2004)
# What was measured:
# [1] = tested on: mustard beetle larvae (Phaedon cochleariae); assay: Phaedon Larvae Test; format: in vivo; details: active compound concentration of 0.1%; after 7 days; cabbage leaves dipped
# Description: (§1) Solvent: 7 parts by weight of dimethylformamide
# (§2) Emulsifier: 1 part by weight of alkylaryl polyglycol ether
# To produce a suitable preparation of active compound, 1 part by weight of active compound is mixed with the stated amount of solvent and the stated amount of emulsifier, and the concentrate is diluted with water to the desired concentration.
# Cabbage leaves (Brassica oleracea) are treated by being dipped into the preparation of active compound of the desired concentration and are populated with mustard beetle larvae (Phaedon cochleariae) while the leaves are still moist.
# After the desired period of time, the kill in % is determined. 100% means that all beetle larvae have been killed; 0% means that none of the beetle larvae have been killed.
# [2] = logP determination by HPLC (EEC directive 79/831 Annex V. A8); format: physicochemical; details: pH = 2; HPLC gradient method, acetonitrile/0.1% aqueous phosphoric acid
# Description: [logP=the logP values were determined in accordance with EEC directive 79/831 Annex V. A8 by HPLC (gradient method, acetonitrile/0.1% aqueous phosphoric acid)]
# [3] = tested on: peach aphid (Myzus persicae); assay: Myzus Test; format: in vivo; details: active compound concentration of 0.1%; after 6 days; cabbage leaves dipped
# Description: as §1, §2
# To produce a suitable preparation of active compound, 1 part by weight of active ingredient is mixed with the stated amount of solvent and the stated amount of emulsifier, and the concentrate is diluted with water to the desired concentration.
# Cabbage leaves (Brassica oleracea) which are heavily infested by the peach aphid (Myzus persicae) are treated by being dipped into the preparation of active compound of the desired concentration.
# After the desired period of time, the kill in % is determined. 100% means that all aphids have been killed; 0% means that none of the aphids have been killed.
smiles,measurement,setting,value
"CCCOCN1COCN(Cc2cnc(Cl)s2)C1=N[N+](=O)[O-] [Example 1, 3-(2-chloro-thiazol-5-yl-methyl)-4-nitroimino-5-n-propoxymethyl-perhydro-1,3,5-oxadiazine]",kill,[1],100%
same,chromatographic logP,[2],1.7
same,kill,[3],100%
